In patent publication US8598383B2, “Pharmaceutical composition for treating or preventing degenerative and inflammatory diseases” (Neurotech Pharmaceuticals Co., Ltd., priority 2006, dated 2013):

Experiments:
[1] = system: microglia in lumbar ventral horn; experiment: Microglia activation in G93A ALS mouse (TOMATO Lectin); type: in vivo; conditions: 5 mg/kg/day
Protocol: G93A (Glycine ? Alanine) transgenic mouse having similar pathophysiological characteristics with ALS (amyotrophic lateral sclerosis) human patient was used to evaluate therapeutic effect of drug in ALS, one of main degenerative brain diseases.
Activation degree of microglia (a marker of inflammation in brain disease model) expressed in the lumbar ventral horn of G93A mouse were evaluated with TOMATO Lectin dye. In G93A mouse, microglia was more activated compared to the wild type mouse.

[2] = Single-dose toxicity test; type: in vivo; conditions: mouse, in vivo; single dose
Protocol: FIG. 32 is results of single dose toxicity testing of some 2-hydroxybenzoic acid derivatives according to the present invention.
Single-dose toxicities of the 2-hydroxybenzoic acid derivatives were evaluated.

In the case of `O=C(O)c1cc(NCCc2ccc(C(F)(F)F)cc2)ccc1O` [compound 2, 2-hydroxy-5-[2-(4-trifluoromethyl-phenyl)-ethylamino]-benzoic acid], the “number and activation degree of microglia” value [1] is reported as “decreased the number and activation degree of microglia” and the LD50 [2] is reported as greater than 3000 mg/kg.
